In ChEMBL document CHEMBL1150228, “Synthesis of a novel lysophosphatidylcholine” (J Nat Prod, 2001):

Target: T1, 3-hydroxy-3-methylglutaryl-coenzyme A reductase (Homo sapiens, UniProt P04035)
T1 sequence (P04035 whole entry): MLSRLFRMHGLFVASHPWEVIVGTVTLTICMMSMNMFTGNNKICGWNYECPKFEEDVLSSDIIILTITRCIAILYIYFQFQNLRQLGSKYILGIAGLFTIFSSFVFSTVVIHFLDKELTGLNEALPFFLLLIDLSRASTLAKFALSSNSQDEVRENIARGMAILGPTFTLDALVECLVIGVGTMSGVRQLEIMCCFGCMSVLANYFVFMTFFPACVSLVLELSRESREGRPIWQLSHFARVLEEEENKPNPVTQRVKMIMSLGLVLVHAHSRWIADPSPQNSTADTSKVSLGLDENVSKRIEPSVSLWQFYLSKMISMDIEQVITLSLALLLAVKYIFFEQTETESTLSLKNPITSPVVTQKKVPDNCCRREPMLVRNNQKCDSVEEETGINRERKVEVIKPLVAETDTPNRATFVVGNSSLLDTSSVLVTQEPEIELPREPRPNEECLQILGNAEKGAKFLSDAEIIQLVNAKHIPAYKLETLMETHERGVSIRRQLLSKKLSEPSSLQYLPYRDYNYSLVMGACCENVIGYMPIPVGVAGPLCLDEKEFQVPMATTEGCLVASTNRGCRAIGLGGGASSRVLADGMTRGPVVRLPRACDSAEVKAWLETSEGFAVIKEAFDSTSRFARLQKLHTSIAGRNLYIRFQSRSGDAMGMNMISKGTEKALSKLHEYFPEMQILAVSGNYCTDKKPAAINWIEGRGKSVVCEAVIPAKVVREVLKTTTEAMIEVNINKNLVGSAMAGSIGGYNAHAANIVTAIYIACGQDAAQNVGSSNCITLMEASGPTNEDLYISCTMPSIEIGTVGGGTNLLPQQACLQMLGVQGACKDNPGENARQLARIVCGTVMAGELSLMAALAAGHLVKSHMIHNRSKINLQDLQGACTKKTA
Assay: Inhibition of HMG CoA reductase

IC50: 112 µM
SMILES: CCCCCC[C@@H]1C[C@@H]1CCCCCCCCCC(=O)OCC(O)COP(=O)([O-])OCC[N+](C)(C)C (relative stereo) [LYSOPHOSPHATIDYLCHOLINE]
